Data as given in patent US9301943B2, “Use of eupatilin” (UNIVERSITY-INDUSTRY COOPERATION GROUP OF KYUNG HEE …, priority 2011, dated 2016).

Experiments:
[1] = test system: estrogen receptor; assay: Luciferase assay (3×ERE TATA luc), MCF7 cell line; type: cell-based, human; conditions: for Estrogen receptor subtype through which the substance acts (luciferase assay with siERα / siERβ): MCF-7 breast cancer cells, siRNA 50 nM; for Luciferase activity (-fold): MCF7, 24 h, non-treated group = 1
Protocol: (§1) MCF-7 (estrogen receptor-positive human breast cancer cell line), Ishikawa (estrogen receptor-positive endometrial cancer cell line), and MG-63 (human osteosarcoma; osteoblast-like cell line) were obtained from the American Type Culture Collection (ATCC). BG-1 (uterine cancer cell line) was furnished by courtesy of Dr. Korach (NIH, USA). Cells were cultured in a Dulbecco's modified Eagle's medium (DMEM) containing 10% fetal bovine serum (FBS), 100 U/ml penicillin and 100 U/ml streptomycin, at 37° C. and 5% CO2.
(§2) The luciferase assay is an assay of estimating an estrogenic activity by measuring the degree of a luciferase activity generated upon binding of a substance having an estrogenic activity to an estrogen receptor. This assay was carried out in the following procedure. Unless otherwise specified, the reagents used were purchased from Gibco (Karlwruhe, Germany).
(§3) The luciferase reporter plasmid used was 3×ERE TATA luc. (Addgene, Cambridge, USA). In order to control transfection efficiency, phRenilla-luciferase-CMV (Promega, Mannheim, Germany) as an internal control plasmid was co-transfected. Cells were cultured at a density of 2×10^5 cells/well in a 6-well plate, in a phenol red-free DMEM (Dulbecco's modified Eagle's medium) supplemented with 100 U/ml penicillin, […] streptomycin, 1 mM sodium pyruvate, 1 mM glutamine, and 10% charcoal dextran-treated fetal bovine serum (FBS). After the cells were cultured to a 50 to 60% confluence, the medium was removed, the cells were placed at 37° C. and 5% CO2 for 6 hours on a serum-free OPTI-MEM medium containing plasmid DNA constructs and 2 μg/ml of polyethyleneimine (PEI), according to the manufacturer's instructions. 1 μg/well of 3×ERE TATA luc and 100 ng of a phRL-CMV plasmid were subjected to transfection.
(§4) After the period of transfection, the medium was replaced with a phenol-free DMEM supplemented with 10% charcoal dextran-treated FBS, and the cells were cultured at 37° C. and 5% CO2 overnight prior to treatment of eupatilin.
(§5) After 18 hours of culture, the medium was replaced with a eupatilin-containing medium. The proteins were extracted 24 hours later, and firefly and renilla luciferase activities were measured on a luminometer (Molecular Devices, Sunnyvale, Calif.) using a Dual Luciferase Assay kit (Promega, Madison, Wis.) according to the manufacturer's instructions.
(§6) All experiments were carried out in triplicate and were repeated at least three times. For the luciferase assay, total cell lysates were prepared, the firefly luciferase activity was assayed and normalized to the renilla luciferase activity according to the manufacturer's instructions (Promega). Further, in order to knock down the cell levels of specific proteins, cells with co-transfection of small interfering RNAs (siRNAs) together with 3×ERE TATA luc and phRL-CMV were prepared and subjected to the same treatment of eupatilin or the like as in the cells which were not treated with siRNAs. The siRNAs used were purchased from Bioneer Corporation (Daejeon, South Korea) and treated at a concentration of 50 nM. The “siERα” means siRNA which inhibits the expression of ERα, and the “siERβ” means siRNA which inhibits the expression of ERβ.

[2] = test system: estrogen receptor; assay: Luciferase assay (3×ERE TATA luc), Ishikawa cells; type: cell-based; conditions: for Estrogen receptor subtype through which the substance acts (luciferase assay with siERα / siERβ): Ishikawa endometrial cancer cells, siRNA 50 nM; for Luciferase activity (-fold): Ishikawa, 24 h, non-treated group = 1
Protocol: as §1, §2, §3, §4, §5, §6

[3] = test system: MCF7 breast cancer cells; assay: MTT assay, cancer cell growth; type: cell-based, human; conditions: 48 h, control DMSO
Protocol: Cell viability was estimated by the MTT (3-[4,5-dimethylthiazol-2-yl]-2,5-diphenyltetrazolium bromide; Sigma-Aldrich) assay to confirm cancer cell growth inhibitory effects of eupatilin.
MCF7 breast cancer cells were seeded onto a 96-well plate and incubated for 24 hours. […] On the day of collection, 50 μl of MTT solution (5 mg/ml in PBS) was added to the medium, followed by incubation at 37° C. for 4 hours. The MTT-containing medium was removed and the cells were solubilized in DMSO (100 μl) for 30 min. The cell viability was determined in terms of an optical density at 540 nm using a microplate spectrophotometer (SpectraMax; Molecular Devices, Sunnyvale, Calif.).
Ethanol which is a vehicle was served as control for the E2-treated group, and DMSO was served as control for the eupatilin-treated group.
The viability is expressed in terms of a relative ratio by taking a value of the control to be 100, and the lethality is also expressed in terms of a relative ratio by taking a value of the control to be 100.

[4] = test system: estrogen receptor; assay: Luciferase assay (3×ERE TATA luc), BG-1 cell line; type: cell-based; conditions: 24 h, non-treated group = 1
Protocol: as §1, §2
as §3, with “1 μg/well of 3×ERE TATA luc and 100 ng of a phRL-CMV plasmid were subjected to transfection.” left out
as §5, with “instructions. […]” for “instructions.”

[5] = test system: MG-63 cells; assay: ALP activity in osteoblastic cells; type: cell-based, human; conditions: 24 h
Protocol: The ALP activity in MG-63 cells treated with eupatilin was measured to confirm that eupatilin enhances a bone density in osteoblastic cells. […] Based on the fact that ALP degrades p-nitrophenylphosphate into p-nitrophenol and phosphate, effects of eupatilin on osteoblasts were observed by measuring an ALP activity in terms of an absorbance ratio between the absorbance of each substance and the absorbance of the control at 405 nm.
After 24 hours of the treatment, lysates were prepared and slowly shaken for 30 min. Then, the ALP activity was assayed by measuring the release of p-nitrophenol from p-nitrophenylphosphate (20 mM in 1M diethanolamine buffer supplemented with MgCl2 at pH 9.8). The absorbance was measured at 405 nm. The standard curve was drawn using various concentrations of […] within the range of 0 to 0.1 U/ml PBS-T. The ALP values were adjusted for the protein content of the corresponding cell lysates. The cultures protein content was quantified by means of a bicinchoninic acid protein assay (Thermo Scientific). The results obtained were compared with those of the control to which only BSA was added at a concentration of 100 nM and no specimen was added.

[6] = target: T1, estrogen receptor (Homo sapiens, UniProt Q92731); assay: Luciferase assay (3×ERE TATA luc), MG63 cell line; type: cell-based; conditions: for Luciferase activity (-fold): MG63, 24 h, non-treated group = 1
T1 construct: MG-63 (human osteosarcoma; osteoblast-like cell line); endogenous in cells; host or cells: MG-63
Protocol: as §1, §2, §3, §4, §5
All experiments were carried out in triplicate and were repeated at least three times. For the luciferase assay, total cell lysates were prepared, the firefly luciferase activity was assayed and normalized to the renilla luciferase activity according to the manufacturer's instructions (Promega). […]

T1 sequence (Q92731 whole entry): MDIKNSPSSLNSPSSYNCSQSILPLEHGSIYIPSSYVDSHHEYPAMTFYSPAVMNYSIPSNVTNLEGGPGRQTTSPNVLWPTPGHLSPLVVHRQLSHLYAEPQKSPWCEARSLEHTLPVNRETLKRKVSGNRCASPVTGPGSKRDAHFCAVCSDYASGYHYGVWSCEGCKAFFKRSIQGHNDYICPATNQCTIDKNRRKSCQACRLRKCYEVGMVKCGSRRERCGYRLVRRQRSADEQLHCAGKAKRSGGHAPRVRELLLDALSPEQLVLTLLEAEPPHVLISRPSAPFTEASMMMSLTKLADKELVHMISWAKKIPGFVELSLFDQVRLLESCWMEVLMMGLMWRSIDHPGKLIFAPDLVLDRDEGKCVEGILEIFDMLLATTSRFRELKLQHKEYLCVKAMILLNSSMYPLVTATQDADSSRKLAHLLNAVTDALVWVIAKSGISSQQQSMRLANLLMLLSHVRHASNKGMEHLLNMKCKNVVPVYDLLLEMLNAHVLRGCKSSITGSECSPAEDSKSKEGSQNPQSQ

C[C@]12CC[C@@H]3c4ccc(O)cc4CC[C@H]3[C@@H]1CC[C@@H]2O [E2, 17-β-estradiol, reference compound]
Estrogen receptor subtype through which the substance acts (luciferase assay with siERα / siERβ) ([1]; E2 10^−7 M, FIG. 1): largely induces cell proliferation via only ERα | Estrogen receptor subtype through which the substance acts (luciferase assay with siERα / siERβ) ([2]; E2 10^−7 M, FIG. 2): largely induces cell proliferation via only ERα

COc1ccc(-c2cc(=O)c3c(O)c(OC)c(O)cc3o2)cc1OC [Eupatilin, 5,7-dihydroxy-3′,4′,6-trimethoxyflavone]
Luciferase activity (-fold) ([1]; eupatilin 0.01 μg/ml): 2.4 -fold | Luciferase activity (-fold) ([1]; eupatilin 0.1 μg/ml): 2.3 -fold | Luciferase activity (-fold) ([1]; eupatilin 1 μg/ml): 2.8 -fold | Estrogen receptor subtype through which the substance acts (luciferase assay with siERα / siERβ) ([1]; eupatilin 0.1 or 1.0 μg/ml, FIG. 3): acts equally on both ERα and ERβ | Cell lethality (% relative to control) ([3]; eupatilin 0.1 μg/ml): 21.5 % relative to control | Cell lethality (% relative to control) ([3]; eupatilin 1 μg/ml): 24.5 % relative to control | Luciferase activity (-fold) ([4]; eupatilin 0.01 μg/ml): 2.9 -fold | Luciferase activity (-fold) ([4]; eupatilin 0.1 μg/ml): 3.3 -fold | Luciferase activity (-fold) ([4]; eupatilin 1 μg/ml): 3.7 -fold | ALP activity (% relative to control) ([5]; eupatilin 0.2 μg/ml): 20.5 % relative to control | ALP activity (% relative to control) ([5]; eupatilin 2.0 μg/ml): 60 % relative to control | Estrogen receptor subtype through which the substance acts (luciferase assay with siERα / siERβ) ([2]; eupatilin 0.1 or 1.0 μg/ml, FIG. 4): acts equally on both ERα and ERβ | Luciferase activity (-fold) ([2]; eupatilin 0.01 μg/ml): 1.4 -fold | Luciferase activity (-fold) ([2]; eupatilin 0.1 μg/ml): 1.9 -fold | Luciferase activity (-fold) ([2]; eupatilin 1 μg/ml): 2.9 -fold | Luciferase activity (-fold) ([6]; eupatilin 0.01 μg/ml): 2.1 -fold | Luciferase activity (-fold) ([6]; eupatilin 0.1 μg/ml): 1.7 -fold | Luciferase activity (-fold) ([6]; eupatilin 1 μg/ml): 1.6 -fold | Estrogen receptor subtype through which the substance acts (luciferase assay with siERα / siERβ) ([6]; MG-63 osteoblastic cells, siRNA 50 nM, eupatilin 0.1 or 1.0 μg/ml, FIG. 6): acts selectively on ERβ
